# Literature values in EP0837672B9, “PREPARATIONS AND METHODS FOR THE TREATMENT OF T CELL MEDIATED DISEASES” (YEDA RESEARCH AND DEVELOPMENT CO. LTD., priority 1995, dated 2005).
# Test system: mice
# Conditions: administered to mice sc in an oil vehicle such as incomplete Freund's adjuvant (IFA)
row,Substance,peptide therapy for treatment of IDDM
1,"p32: peptide corresponding to positions 466-485 of the human hsp60 sequence (EIIKRTLKIPAMTIAKNAGV; UniProt P10809 466-485, looked up, fragment)",effective
2,"p12: peptide corresponding to positions 166-185 of the human hsp60 sequence (EEIAQVATISANGDKEIGNI; UniProt P10809 166-185, looked up, fragment)",effective
3,"p277: peptide corresponding to positions 437-460 of the human hsp 60 sequence (VLGGGCALLRCIPALDSLTPANED; UniProt P10809 437-460, looked up, fragment)",effective
